Reference: patent US12503473B2, “Triazolopyrimidine compounds and their use in treating cancer” (Dizal (Jiangsu) Pharmaceutical Co., Ltd., priority 2018, dated 2025)

Key:
[1] = biological target: T1, MCT4 (Homo sapiens, UniProt O15427); test: cell-based
T1 sequence (O15427 1-465): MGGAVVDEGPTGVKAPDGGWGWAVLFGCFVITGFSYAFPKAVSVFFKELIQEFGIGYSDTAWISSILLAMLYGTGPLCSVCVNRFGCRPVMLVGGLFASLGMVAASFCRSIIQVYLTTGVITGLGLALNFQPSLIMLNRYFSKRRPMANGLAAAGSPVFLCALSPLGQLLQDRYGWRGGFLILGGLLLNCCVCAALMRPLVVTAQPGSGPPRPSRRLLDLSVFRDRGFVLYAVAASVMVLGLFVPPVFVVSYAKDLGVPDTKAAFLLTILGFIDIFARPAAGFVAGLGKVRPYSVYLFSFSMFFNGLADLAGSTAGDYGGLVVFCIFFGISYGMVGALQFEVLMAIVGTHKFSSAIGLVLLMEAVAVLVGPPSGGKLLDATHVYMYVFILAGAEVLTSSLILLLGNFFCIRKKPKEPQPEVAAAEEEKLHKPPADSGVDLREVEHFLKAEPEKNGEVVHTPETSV

[2] = biological target: T1, MCT4; test: Assay (d): FLIPR BCECF lactate influx in INS-1 MCT4 cells; type: cell-based, rat; parameters: expressed in transfected cells; conditions: INS-1 cells stably expressing human MCT4; mean of at least three repeats; read-out: MCT4 FLIPR pIC50 (INS-1) (converted)
Procedure: INS-1 MCT4 cells were generated through transfection of the parental cell background with the following DNA sequence, inserted into a pcDNA3.1 (ThermoFisher #V79020) mammalian expression vector:
The resultant cell pool was continually cultured at 37° C. and 5% CO2 under antibiotic selection in RPMI (Sigma #R0883) medium containing 1% L glutamine (Sigma #G7513), 10% FBS (Sigma #F7524), 10 mM [final] […] An individual clone was selected and expanded before being cryopreserved in a number of individual vials for continued use. Prior to testing in the biological assay, an individual INS-1 MCT4 cryovial was defrosted and continually passaged over a number of weeks—in the Geneticin selection media described previously—to obtain the requesite cell number.

[3] = biological target: T2, MCT1 (Homo sapiens, UniProt P53985); test: Assay (c): FLIPR BCECF lactate influx in K562 cells; type: cell-based; conditions: mean of at least three repeats, read-out: MCT1 FLIPR pIC50 (K562) (converted)
T2 construct: a human erythroleukemia line predominantly expressing MCT1, a small amount of MCT2 and no MCT4; host or cells: K562
T2 sequence (P53985 1-500): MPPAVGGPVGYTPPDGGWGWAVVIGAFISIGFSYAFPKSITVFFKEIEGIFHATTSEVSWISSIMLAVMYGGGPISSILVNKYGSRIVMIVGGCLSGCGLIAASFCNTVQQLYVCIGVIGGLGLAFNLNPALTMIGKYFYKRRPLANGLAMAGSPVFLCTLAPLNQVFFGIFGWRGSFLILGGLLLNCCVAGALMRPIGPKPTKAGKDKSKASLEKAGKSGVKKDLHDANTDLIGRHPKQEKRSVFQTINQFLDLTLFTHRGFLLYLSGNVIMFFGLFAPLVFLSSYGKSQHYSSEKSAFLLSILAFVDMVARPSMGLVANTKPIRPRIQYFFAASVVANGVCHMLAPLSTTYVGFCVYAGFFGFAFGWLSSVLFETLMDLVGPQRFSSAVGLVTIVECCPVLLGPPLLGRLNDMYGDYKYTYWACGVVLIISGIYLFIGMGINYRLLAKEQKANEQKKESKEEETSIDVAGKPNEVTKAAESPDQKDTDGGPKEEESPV
Procedure: Cells were loaded with the pH sensitive dye BCECFAM(Invitrogen #B11150) before being washed to remove excess dye and seeded into the assay plates—directly onto the test compound—at a density of 15,000 cells/well (NCI—H358) or 30,000 cells/well (K562), in 30 μl HBSS with 1 mM [final] […] Assay plates were lidded and spun in a plate centrifuge at 170 g for 1 minute. Plates were then wrapped in foil and incubated in the dark for 1 hour at room temperature.
Following incubation with test compound, 10 μl of 25 mM Sodium-L-Lactate (Sigma #L7022) made up in HBSS with 1 mM [final] […] This addition was performed directly on the FLIPR Tetra platform (Molecular Devices) as part of a real-time kinetic read protocol. […] A percentage change from base-line was calculated for each test well and values normalised to control wells—treated with either DMSO (maximum assay signal) or chemistry related to that described in this patent (minimum assay signal)—before fitting concentration response curves to determine an IC50 value.

[4] = biological target: T1, MCT4; test: Assay (a): lactate efflux from SK-Br-3 cells (lactate in media, 4 h); type: cell-based; parameters: a natively glycolytic human breast adenocarcinoma line predominantly expressing MCT4; host or cells: SK-Br-3; conditions: mean of at least three repeats (Example 32, marked *, two repeats), read-out: MCT4 lactate efflux pIC50 (SKBR3) (converted)
Procedure: Assay plates were lidded and incubated for 4 hours at 37° C. and 5% CO2.

Structure (SMILES)	IC50 [1]	IC50 [2]	IC50 [3]	IC50 [4]
Cc1nc2nc(C)c(C[C@@H]3CCN(c4cnc(-c5ccc(CN6CCOCC6)cc5)cn4)C3)c(C)n2n1 [Example 60, (R)-4-(4-(5-(3-((2,5,7-trimethyl-[1,2,4]triazolo[1,5-a]pyrimidin-6-yl)methyl)pyrrolidin-1-yl)pyrazin-2-yl)benzyl)morpholine]	7.94 nM	5.01 nM	12600 nM	0.398 nM
CCN1CCN(Cc2ccc(-c3ccc(N4CC[C@@H](Oc5c(C)nc6nc(C)nn6c5C)C4)cc3)nn2)CC1 [Example 72, (R)-6-((1-(4-(6-((4-ethylpiperazin-1-yl)methyl)pyridazin-3-yl)phenyl)pyrrolidin-3-yl)oxy)-2,5,7-trimethyl-[1,2,4]triazolo[1,5-a]pyrimidine]	79.4 nM	–	> 25100 nM	2.51 nM
CC(=O)N1CCN(Cc2ccc(-c3ccc(N4CC[C@@H](Oc5c(C)nc6nc(C)nn6c5C)C4)cc3)nn2)CC1 [Example 71, (R)-1-(4-((6-(4-(3-((2,5,7-trimethyl-[1,2,4]triazolo[1,5-a]pyrimidin-6-yl)oxy)pyrrolidin-1-yl)phenyl)pyridazin-3-yl)methyl)piperazin-1-yl)ethan-1-one]	–	–	> 25100 nM	–
Cc1nc2nc(C)c(C[C@@H]3CCN(c4cnc(-c5ccc(CN6CCN(C)CC6)cc5)cn4)C3)c(C)n2n1 [Example 59, (R)-2,5,7-trimethyl-6-((1-(5-(4-((4-methylpiperazin-1-yl)methyl)phenyl)pyrazin-2-yl)pyrrolidin-3-yl)methyl)-[1,2,4]triazolo[1,5-a]pyrimidine]	–	–	> 25100 nM	–
CC(=O)N1CCN(Cc2ccc(-c3cnc(N4CC[C@@H](Cc5c(C)nc6nc(C)nn6c5C)C4)cn3)cc2)CC1 [Example 58, (R)-1-(4-(4-(5-(3-((2,5,7-trimethyl-[1,2,4]triazolo[1,5-a]pyrimidin-6-yl)methyl)pyrrolidin-1-yl)pyrazin-2-yl)benzyl)piperazin-1-yl)ethanone]	12.6 nM	–	> 25100 nM	0.631 nM
Cc1nc2nc(C)c(O[C@@H]3CCN(c4ccc(-c5ccc(CN6CCN7CCC[C@H]7C6)nn5)cc4)C3)c(C)n2n1 [Example 68, 6-(((R)-1-(4-(6-(((S)-hexahydropyrrolo[1,2-a]pyrazin-2(1H)-yl)methyl)pyridazin-3-yl)phenyl)pyrrolidin-3-yl)oxy)-2,5,7-trimethyl-[1,2,4]triazolo[1,5-a]pyrimidine]	100 nM	–	> 25100 nM	3.16 nM
Cc1nc2nc(C)c(O[C@@H]3CCN(c4ccc(-c5ccc(CN6CCN7CCC[C@@H]7C6)nn5)cc4)C3)c(C)n2n1 [Example 67, 6-(((R)-1-(4-(6-(((R)-hexahydropyrrolo[1,2-a]pyrazin-2(1H)-yl)methyl)pyridazin-3-yl)phenyl)pyrrolidin-3-yl)oxy)-2,5,7-trimethyl-[1,2,4]triazolo[1,5-a]pyrimidine]	63.1 nM	–	> 25100 nM	2 nM
Cc1nc2nc(C)c(O[C@@H]3CCN(c4ccc(-c5ccc(CN6CCN(C)CC6)nn5)cc4)C3)c(C)n2n1 [Example 65, (R)-2,5,7-trimethyl-6-((1-(4-(6-((4-methylpiperazin-1-yl)methyl)pyridazin-3-yl)phenyl)pyrrolidin-3-yl)oxy)-[1,2,4]triazolo[1,5-a]pyrimidine]	–	–	> 25100 nM	–
Cc1nc2nc(C)c(O[C@@H]3CCN(c4cnc(-c5ccc(CN6CCN(C)CC6)cc5)nc4)C3)c(C)n2n1 [Example 76, (R)-2,5,7-trimethyl-6-((1-(2-(4-((4-methylpiperazin-1-yl)methyl)phenyl)pyrimidin-5-yl)pyrrolidin-3-yl)oxy)-[1,2,4]triazolo[1,5-a]pyrimidine]	–	–	> 25100 nM	2 nM
Cc1nc2nc(C)c(C[C@@H]3CCN(c4cnc(-c5ccc(CN6CCN(C)C[C@H]6C)cc5)cn4)C3)c(C)n2n1 [Example 34, 6-(((R)-1-(5-(4-(((R)-2,4-dimethylpiperazin-1-yl)methyl)phenyl)pyrazin-2-yl)pyrrolidin-3-yl)methyl)-2,5,7-trimethyl-[1,2,4]triazolo[1,5-a]pyrimidine]	63.1 nM	–	> 25100 nM	1.58 nM
Cc1nc2nc(C)c(C[C@@H]3CCN(c4ccc(-c5ccc(CN6CCOCC6)nn5)nc4)C3)c(C)n2n1 [Example 9, (R)-4-((6-(5-(3-((2,5,7-trimethyl-[1,2,4]triazolo[1,5-a]pyrimidin-6-yl)methyl)pyrrolidin-1-yl)pyridin-2-yl)pyridazin-3-yl)methyl)morpholine]	15.8 nM	–	> 20000 nM	0.501 nM
Cc1nc2nc(C)c(C[C@@H]3CCN(c4cnc(-c5ccc(CN6C[C@@H](C)N(C)C[C@H]6C)cc5)cn4)C3)c(C)n2n1 [Example 35, 2,5,7-trimethyl-6-(((R)-1-(5-(4-(((2R,5R)-2,4,5-trimethylpiperazin-1-yl)methyl)phenyl)pyrazin-2-yl)pyrrolidin-3-yl)methyl)-[1,2,4]triazolo[1,5-a]pyrimidine]	15.8 nM	–	> 25100 nM	0.631 nM
Cc1nc2nc(C)c(C[C@@H]3CCN(c4cnc(-c5ccc(CN6CCN(CCO)CC6)cc5)cn4)C3)c(C)n2n1 [Example 41, 2-{4-[4-(5-{(3R)-3-[(2,5,7-trimethyl[1,2,4]triazolo[1,5-a]pyrimidin-6-yl)methyl]pyrrolidin-1-yl}pyrazin-2-yl)benzyl]piperazin-1-yl}ethanol]	–	–	> 25100 nM	0.794 nM
Cc1nc2nc(C)c(C[C@@H]3CCN(c4cnc(-c5ccc(CN6C[C@@H](C)N(C)C[C@@H]6C)cc5)cn4)C3)c(C)n2n1 [Example 36, 2,5,7-trimethyl-6-(((R)-1-(5-(4-(((2S,5R)-2,4,5-trimethylpiperazin-1-yl)methyl)phenyl)pyrazin-2-yl)pyrrolidin-3-yl)methyl)-[1,2,4]triazolo[1,5-a]pyrimidine]	–	–	> 25100 nM	0.501 nM
Cc1nc2nc(C)c(C[C@@H]3CCN(c4cnc(-c5ccc(CN6CCN(C)C[C@@H]6C)cc5)cn4)C3)c(C)n2n1 [Example 50, 6-(((R)-1-(5-(4-(((S)-2,4-dimethylpiperazin-1-yl)methyl)phenyl)pyrazin-2-yl)pyrrolidin-3-yl)methyl)-2,5,7-trimethyl-[1,2,4]triazolo[1,5-a]pyrimidine]	15.8 nM	–	> 25100 nM	0.501 nM
Cc1nc2nc(C)c(C[C@@H]3CCN(c4ccc(-c5ccc(CN6CCN(C)CC6)nc5)cn4)C3)c(C)n2n1 [Example 4, (R)-2,5,7-trimethyl-6-((1-(6′-((4-methylpiperazin-1-yl)methyl)-[3,3′-bipyridin]-6-yl)pyrrolidin-3-yl)methyl)-[1,2,4]triazolo[1,5-a]pyrimidine]	39.8 nM	–	–	0.631 nM
Cc1nc2nc(C)c(C[C@@H]3CCN(c4ccc(-c5ccc(CN6CCOCC6)nn5)cc4)C3)c(C)n2n1 [Example 29, (R)-4-((6-(4-(3-((2,5,7-trimethyl-[1,2,4]triazolo[1,5-a]pyrimidin-6-yl)methyl)pyrrolidin-1-yl)phenyl)pyridazin-3-yl)methyl)morpholine]	–	–	> 15800 nM	–
Cc1nc2nc(C)c(C[C@@H]3CCN(c4cnc(-c5ccc(CN6CCOCC6)cn5)c(C)n4)C3)c(C)n2n1 [Example 47, (R)-4-((6-(3-methyl-5-(3-((2,5,7-trimethyl-[1,2,4]triazolo[1,5-a]pyrimidin-6-yl)methyl)pyrrolidin-1-yl)pyrazin-2-yl)pyridin-3-yl)methyl)morpholine]	10 nM	–	–	2 nM
